Reference: the pKa sets of Baltruschat and Czodrowski (2020)

Conditions: acidic group

SMILES	pKa
O=C(O)/C=C/c1cccc([N+](=O)[O-])c1	4.08
[NH3+]CCC#CC#CCCC(=O)O	4.12
OCc1nc2cc(Cl)ccc2[nH]1	11.5
COc1cnc(N)s1	4.98
[O-]c1ccc(Nc2ccc(O)cc2)cc1	10.6
O=S(=O)([O-])c1cc(O)cc2cn[nH]c12	9.65
O/N=C\c1ccccc1	11.3
Cc1nsc(S)n1	5.18
Cn1nc(/N=N/O)nc1N1CCCCC1	5.46
O=C(O)c1ccc(=O)oc1	3.26
Oc1cccc2nnccc12	7.4
CC(C#N)C(=O)O (stereo not drawn)	2.37
CC(=O)C(C(C)=O)c1ccccc1	9.32
OB(O)Cc1ccccc1	9.12
CC(C)C1C(=O)c2ccccc2C1=O	7.4
Cn1c[nH+]c(C(=O)O)c1C(=O)O	-0.88

SMILES	pKa
COc1ccccc1/C=C/C=N\O	11.3
CC(C)C([NH2+]c1ccccc1)C(=O)O (stereo not drawn)	4.4
[NH3+]Cc1ccc(C(=O)O)cc1	3.59
COc1cc[n+](O)cc1	2.05
Oc1cccc(I)c1	9.02
CCCOc1ccc(O)cc1	10.2
Oc1ccc2cn[nH]c2c1	9.35
CC(C)(C)c1ccccc1C(=O)O	3.53
CC(=O)C1C(=O)OC(=O)C=C1C (stereo not drawn)	1.34
N#CCC[n+]1ccc(C(N)=O)cc1.[Br-]	13.3
COCC1=C(C(=O)O)C2C=CC1C2 (stereo not drawn)	4.59
O=C(O)[C@H]1CCC[C@H](O)C1	4.82
C[n+]1ccc(-c2nc3ccccc3[nH]2)cc1	8.89
O=C(CC(=O)c1ccc([N+](=O)[O-])cc1)Nc1ccccc1	8.7
O=C(O)c1ccc(F)c([N+](=O)[O-])c1	3.37
Cc1ccccc1NN=C(C#N)C#N	6.9

Same assay, conditions: basic group

SMILES	pKa
CC(O)c1ccccc1 (stereo not drawn)	-7
Cc1ccc(S(=O)(=O)[N-]CCC(=N)N(C)C)cc1	11.4
CN1CCC1	10.4
CNc1ccc(C)cc1	5.36
OCc1nc2cc(Cl)ccc2[nH]1	4.63
CNNC1CC[NH+](C(C)C)CC1	6.2
Cn1ccnc1-c1[nH+]ccn1C	0.5
C#CCN(CC#C)CC#C	3.04
Cc1ccccc1NC(C)(C)C	6.49
CCCCc1c(C)nc(NCC)nc1[O-]	11
Cc1nc2c(C)ccc([N+](=O)[O-])c2c(NCCC[NH+](C)C)c1C	6.67
CCN1CCC[C@@H]1CNC(=O)c1c([O-])c(Cl)cc(Cl)c1OC	9.12
Oc1cccc2nnccc12	1.92
Nc1cccc(N)c1	5.04
CCSC(=N)c1ccccc1	6.05
C[C@H]1C[C@@H]2CCN1C2	10.6
Cc1nn(-c2ccccc2)c(C(=O)[O-])c1C(=O)[O-]	5.89
CC(C)CCNCCC(C)C	10.9
CCCCCCCCCCCCCCN(CCO)CC(C)O (stereo not drawn)	6.3
CN(C)CC(CSCc1ccccc1)SCc1ccccc1 (stereo not drawn)	7.3
CCNN(C)C	6.58

SMILES	pKa
Nc1ccc(Br)cc1	3.79
Cn1ccc(=N)cc1	12.5
CN(C)c1ccc2nc3ccc(N)cc3nc2c1	6.6
CCOc1ccccc1N	4.51
Cn1ccnc1-c1ccccn1	5.7
CN1CCC2=C(C1)C(c1ccccc1)c1ccccc12 (stereo not drawn)	8.29
OCc1ccncc1	5.41
CC(C=C(c1cccs1)c1cccs1)N1CCCCCC1 (stereo not drawn)	7.96
OCCCc1cccnc1	5.57
NC(CO)CO	8.63
CC(C)N(CC1CO1)CC1CO1 (stereo not drawn)	7.07
CCC(O)CN(CC)CC(C)O (stereo not drawn)	9.2
COc1cc(Br)cc(C(=O)N[C@@H]2C[C@H]3CC[C@@H](C2)N3Cc2ccccc2)c1OC	8.84
C[n+]1ccc(-c2nc3ccccc3[nH]2)cc1	2.26
CCC(C)(C)N	10.9
c1ccc(-c2ccc3ccc4cccnc4c3n2)cc1	4.9
CN(C)c1ccc(SC#N)cc1	3.3
NCCC(=O)NC(Cc1c[nH]cn1)C(=O)[O-] (stereo not drawn)	9.48
Cc1ccccc1NN=C(C#N)C#N	-0.84
NCc1ccc(Cl)cc1[N+](=O)[O-]	8.34
